Assay results from PubChem BioAssay AID1963440 (Molecular Pharmacology Branch, DTP, NCI, 2024).

System: NCI-H1417 complex spheroids, growth % test/control
Experiment: Anticancer human tumor NCI-H1417 cell line growth inhibition [Asc];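 further: spheroids exposed to compounds for 7 days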;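 on viability, T/C: 100% = DMSO vehicle control wells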
Conditions: for IC50: curve of first compound; for viability, T/C: stronger effect = lower value
Procedure, shortened: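 Complex solid-tumor spheroids incorporating human endothelial and mesenchymal stem cells received single agents or combinations over half-log dilution ranges anchored to clinical Cmax.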

`Cc1nc(N2CCC3(CC2)COC(C)C3N)c(CO)nc1Sc1ccnc(N)c1Cl` (stereo not given) + Cc1c(S(C)(=O)=O)c(-c2cc(F)cc(N3CCN(c4ccc(NS(=O)(=O)c5ccc(NC(CCN6CCC(C(=O)OCCCP(=O)(O)O)CC6)CSc6ccccc6)c(S(=O)(=O)C(F)(F)F)c5)cc4)CC3)c2)c(-c2ccc(Cl)cc2)n1C(C)C was tested, and the IC50 (second compound 0.1 µM) was over 3 µM, the IC50 (second compound 0.316 µM) was under 0.00949 µM and the IC50 (second compound 1 µM) was under 0.00949 µM. It also gave an IC50 (second compound 3.16 µM) of under 0.00949 µM, an IC50 (second compound 10 µM) of under 0.00949 µM and a viability, T/C (second compound 0.1 µM, first compound 0.00949 µM) of 81.4%. For the same compound, the viability, T/C (second compound 0.1 µM, first compound 0.03 µM) was 82%, the viability, T/C (second compound 0.1 µM, first compound 0.0949 µM) was 71.4% and the viability, T/C (second compound 0.1 µM, first compound 0.3 µM) was 64.8%. For the same compound, the viability, T/C (second compound 0.1 µM, first compound 0.949 µM) was 64.4%, the viability, T/C (second compound 0.1 µM, first compound 3 µM) was 52.6% and the viability, T/C (second compound 0.316 µM, first compound 0.00949 µM) was 46.9%. For the same compound, the viability, T/C (second compound 0.316 µM, first compound 0.03 µM) was 46.3%, the viability, T/C (second compound 0.316 µM, first compound 0.0949 µM) was 32.9% and the viability, T/C (second compound 0.316 µM, first compound 0.3 µM) was 23.9%. It also gave a viability, T/C (second compound 0.316 µM, first compound 0.949 µM) of 13.7%, a viability, T/C (second compound 0.316 µM, first compound 3 µM) of 12.2% and a viability, T/C (second compound 1 µM, first compound 0.00949 µM) of 12.4%. It also gave a viability, T/C (second compound 1 µM, first compound 0.03 µM) of 9.91%, a viability, T/C (second compound 1 µM, first compound 0.0949 µM) of 6.5% and a viability, T/C (second compound 1 µM, first compound 0.3 µM) of 3.75%. The viability, T/C (second compound 1 µM, first compound 0.949 µM) was 1.89%, the viability, T/C (second compound 1 µM, first compound 3 µM) was 0.84% and the viability, T/C (second compound 3.16 µM, first compound 0.00949 µM) was 2.34%. For the same compound, the viability, T/C (second compound 3.16 µM, first compound 0.03 µM) was 2.47%, the viability, T/C (second compound 3.16 µM, first compound 0.0949 µM) was 1.68% and the viability, T/C (second compound 3.16 µM, first compound 0.3 µM) was 1.09%. The viability, T/C (second compound 3.16 µM, first compound 0.949 µM) was 0.67%, the viability, T/C (second compound 3.16 µM, first compound 3 µM) was 0.5% and the viability, T/C (second compound 10 µM, first compound 0.00949 µM) was 2.47%. It also gave a viability, T/C (second compound 10 µM, first compound 0.03 µM) of 2.41%, a viability, T/C (second compound 10 µM, first compound 0.0949 µM) of 1.78% and a viability, T/C (second compound 10 µM, first compound 0.3 µM) of 1.37%. The viability, T/C (second compound 10 µM, first compound 0.949 µM) was 1.05% and the viability, T/C (second compound 10 µM, first compound 3 µM) was 1.2%.
`O=C(c1cc(Cc2n[nH]c(=O)c3ccccc23)ccc1F)N1CCN(C(=O)C2CC2)CC1` + CCN1C(C(=O)NC23CCC(C(=O)O)(CC2)CC3)C(c2cccc(Cl)c2F)C2(C(=O)Nc3cc(Cl)ccc32)C12CCCCC2 showed an IC50 (second compound 0.03 µM) of 2.86 µM, an IC50 (second compound 0.0949 µM) of 3.97 µM and an IC50 (second compound 0.3 µM) of 2.69 µM. It also gave an IC50 (second compound 0.949 µM) of 2.96 µM, an IC50 (second compound 3 µM) of 3.21 µM and a viability, T/C (second compound 0.03 µM, first compound 0.0316 µM) of 98.2%. The viability, T/C (second compound 0.03 µM, first compound 0.1 µM) was 96.3%, the viability, T/C (second compound 0.03 µM, first compound 0.316 µM) was 107% and the viability, T/C (second compound 0.03 µM, first compound 1 µM) was 82.3%. For the same compound, the viability, T/C (second compound 0.03 µM, first compound 3.16 µM) was 48%, the viability, T/C (second compound 0.03 µM, first compound 10 µM) was 33.6% and the viability, T/C (second compound 0.0949 µM, first compound 0.0316 µM) was 101%. For the same compound, the viability, T/C (second compound 0.0949 µM, first compound 0.1 µM) was 110%, the viability, T/C (second compound 0.0949 µM, first compound 0.316 µM) was 88.7% and the viability, T/C (second compound 0.0949 µM, first compound 1 µM) was 84.8%. The viability, T/C (second compound 0.0949 µM, first compound 3.16 µM) was 53.6%, the viability, T/C (second compound 0.0949 µM, first compound 10 µM) was 29.9% and the viability, T/C (second compound 0.3 µM, first compound 0.0316 µM) was 101%. It also gave a viability, T/C (second compound 0.3 µM, first compound 0.1 µM) of 103%, a viability, T/C (second compound 0.3 µM, first compound 0.316 µM) of 98% and a viability, T/C (second compound 0.3 µM, first compound 1 µM) of 76.8%. For the same compound, the viability, T/C (second compound 0.3 µM, first compound 3.16 µM) was 46.1%, the viability, T/C (second compound 0.3 µM, first compound 10 µM) was 31.2% and the viability, T/C (second compound 0.949 µM, first compound 0.0316 µM) was 95.3%. It also gave a viability, T/C (second compound 0.949 µM, first compound 0.1 µM) of 105%, a viability, T/C (second compound 0.949 µM, first compound 0.316 µM) of 82.9% and a viability, T/C (second compound 0.949 µM, first compound 1 µM) of 76.2%. It also gave a viability, T/C (second compound 0.949 µM, first compound 3.16 µM) of 47.3%, a viability, T/C (second compound 0.949 µM, first compound 10 µM) of 29.8% and a viability, T/C (second compound 3 µM, first compound 0.0316 µM) of 94%. The viability, T/C (second compound 3 µM, first compound 0.1 µM) was 90.1%, the viability, T/C (second compound 3 µM, first compound 0.316 µM) was 95.9% and the viability, T/C (second compound 3 µM, first compound 1 µM) was 74.8%. The viability, T/C (second compound 3 µM, first compound 3.16 µM) was 51.5% and the viability, T/C (second compound 3 µM, first compound 10 µM) was 28.3%.
